The subject of the assay is BDF1 mice, P388 leukemia ip, median survival T/C. Put plainly: NCI In Vivo Anticancer Drug Screen. Data for tumor model P388 Leukemia (intraperitoneal) in B6D2F1 (BDF1) mice. Conditions: endpoint: median survival time, higher = longer survival. Summed up: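 Mice carrying the transplantable tumour receive compound or vehicle. Survival is followed in each arm, and the treated measure is divided by the vehicle measure.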

Where [1] appears, read: dose: 25.0 mg/kg/injection, schedule: Q01DX009 (ip), vehicle: saline.
[2] abbreviates: dose: 50.0 mg/kg/injection, schedule: Q01DX009 (ip), vehicle: saline.
[3] abbreviates: dose: 100.0 mg/kg/injection, schedule: Q01DX009 (ip), vehicle: saline.
[4] abbreviates: dose: 200.0 mg/kg/injection, schedule: Q01DX009 (ip), vehicle: saline.
The mark [5] stands for this setting: dose: 50.0 mg/kg/injection, schedule: Q04DX003 (ip), vehicle: saline with Tween-80.
[6] abbreviates: dose: 100.0 mg/kg/injection, schedule: Q04DX003 (ip), vehicle: saline with Tween-80.
The mark [7] stands for this setting: dose: 200.0 mg/kg/injection, schedule: Q04DX003 (ip), vehicle: saline with Tween-80.
The mark [8] stands for this setting: dose: 400.0 mg/kg/injection, schedule: Q04DX003 (ip), vehicle: saline with Tween-80.

SMILES strings stand for the structures. Several values for one entry are separate records, joined by “and”; a condition that tells them apart may be missing. Equal entries are not always repeated. Inconclusive results and toxic doses are left out.

Consider `O=P1(N(CCCl)CCCl)NCCCO1` (centres undefined), for which the T/C (dose: 6.25 mg/kg/injection, schedule: Q01DX009 (ip), vehicle: saline) was 120 % of control; the T/C (dose: 10.0 mg/kg/injection, schedule: Q01DX010 (ip), vehicle: water) is 227 % of control; the T/C (dose: 10.0 mg/kg/injection, schedule: Q01DX015 (ip), vehicle: saline) is 167 % of control; the T/C (dose: 11.25 mg/kg/injection, schedule: Q01DX010 (ip), vehicle: saline) was 186 % of control; the T/C (dose: 12.5 mg/kg/injection, schedule: Q01DX009 (ip), vehicle: saline) was 124 % of control and 206 % of control; the T/C (dose: 15.0 mg/kg/injection, schedule: Q01DX015 (ip), vehicle: saline) is 202 % of control and 216 % of control. The T/C reads like this: (dose: 20.0 mg/kg/injection, schedule: Q01DX010 (ip), vehicle: saline) 235 % of control and 259 % of control and 280 % of control; (dose: 20.0 mg/kg/injection, schedule: Q01DX010 (ip), vehicle: water) 272 % of control; (dose: 20.0 mg/kg/injection, schedule: Q01DX015 (ip), vehicle: saline) 245 % of control and 219 % of control; under setting [1], 257 % of control and 165 % of control; (dose: 25.0 mg/kg/injection, schedule: Q01DX015 (ip), vehicle: saline) 272 % of control and 349 % of control; (dose: 25.0 mg/kg/injection, schedule: Q04DX003 (ip), vehicle: saline) 150 % of control and 179 % of control. Moreover, the T/C by setting is: (dose: 25.0 mg/kg/injection, schedule: Q04DX003 (ip), vehicle: water) 283 % of control; (dose: 30.0 mg/kg/injection, schedule: Q01DX010 (ip), vehicle: saline) 272 % of control and 300 % of control (2×); (dose: 30.0 mg/kg/injection, schedule: Q01DX015 (ip), vehicle: saline) 356 % of control and 423 % of control; (dose: 31.3 mg/kg/injection, schedule: Q01DX001 (ip), vehicle: saline) 163 % of control; (dose: 37.5 mg/kg/injection, schedule: Q01DX001 (ip), vehicle: saline) 153 % of control; (dose: 50.0 mg/kg/injection, schedule: Q01DX001 (ip), vehicle: saline) 159 % of control and 175 % of control. Also, the T/C is 250 % of control and 111 % of control and 112 % of control under setting [2]; 258 % of control and 192 % of control (dose: 50.0 mg/kg/injection, schedule: Q04DX003 (ip), vehicle: saline); 111 % of control (dose: 50.0 mg/kg/injection, schedule: Q04DX003 (ip), vehicle: water); 218 % of control (dose: 50.0 mg/kg/injection, schedule: Q08DX002 (ip), vehicle: saline); 190 % of control (dose: 62.5 mg/kg/injection, schedule: Q01DX001 (ip), vehicle: saline); 258 % of control and 98 % of control (dose: 70.0 mg/kg/injection, schedule: Q04DX003 (ip), vehicle: saline). Moreover, the T/C runs as follows: (dose: 75.0 mg/kg/injection, schedule: Q04DX003 (ip), vehicle: saline) 557 % of control; (dose: 86.4 mg/kg/injection, schedule: Q01DX001 (ip), vehicle: saline) 234 % of control and 117 % of control and 193 % of control; (dose: 89.0 mg/kg/injection, schedule: Q01DX001 (ip), vehicle: saline) 197 % of control; under setting [3], 100 % of control and 112 % of control and 113 % of control; (dose: 100.0 mg/kg/injection, schedule: Q04DX003 (ip), vehicle: water) 91 % of control; (dose: 100.0 mg/kg/injection, schedule: Q08DX002 (ip), vehicle: saline) 267 % of control. Moreover, the T/C (dose: 125.0 mg/kg/injection, schedule: Q01DX001 (ip), vehicle: saline) is 293 % of control; the T/C (dose: 144.0 mg/kg/injection, schedule: Q01DX001 (ip), vehicle: saline) is 297 % of control and 541 % of control and 198 % of control; the T/C (dose: 180.0 mg/kg/injection, schedule: Q01DX001 (ip), vehicle: water) is 244 % of control; the T/C (dose: 200.0 mg/kg/injection, schedule: Q04DX003 (ip), vehicle: saline) was 103 % of control; the T/C (dose: 200.0 mg/kg/injection, schedule: Q08DX002 (ip), vehicle: saline) was 270 % of control; the T/C (dose: 240.0 mg/kg/injection, schedule: Q01DX001 (ip), vehicle: saline) is 290 % of control and 544 % of control. Besides, the T/C is, setting by setting: (dose: 300.0 mg/kg/injection, schedule: Q01DX001 (ip), vehicle: water) 268 % of control; (dose: 400.0 mg/kg/injection, schedule: Q08DX002 (ip), vehicle: saline) 88 % of control; (dose: 500.0 mg/kg/injection, schedule: Q01DX001 (ip), vehicle: water) 252 % of control; (dose: 600.0 mg/kg/injection, schedule: Q01DX001 (ip), vehicle: saline) 54 % of control.
`CC=C=C(C)CN`: the T/C by setting is: under setting [2], 96 % of control; under setting [3], 96 % of control; under setting [4], 92 % of control.
As for `NC(=O)NC(C(=O)O)(c1ccccc1)C1CCC1` (centres undefined), the T/C runs as follows: under setting [5], 99 % of control; under setting [6], 91 % of control; under setting [7], 95 % of control; under setting [8], 95 % of control.
For `CCOC(=O)/C(C#N)=C\c1cc(=O)c(OC)co1`, the T/C by setting is: (dose: 100.0 mg/kg/injection, schedule: Q01DX001 (ip), vehicle: Klucel (hydroxypropylcellulose) (HPC)) 90 % of control; (dose: 200.0 mg/kg/injection, schedule: Q01DX001 (ip), vehicle: Klucel (hydroxypropylcellulose) (HPC)) 100 % of control; (dose: 400.0 mg/kg/injection, schedule: Q01DX001 (ip), vehicle: Klucel (hydroxypropylcellulose) (HPC)) 100 % of control.
Consider `O=C(O)C(S)C(S)C(=O)O.[As]` (centres undefined), for which the T/C by setting is: under setting [1], 94 % of control; (dose: 25.0 mg/kg/injection, schedule: Q04DX003 (ip), vehicle: saline sonified) 118 % of control; under setting [2], 88 % of control; (dose: 50.0 mg/kg/injection, schedule: Q04DX003 (ip), vehicle: saline sonified) 118 % of control; under setting [3], 88 % of control; (dose: 100.0 mg/kg/injection, schedule: Q04DX003 (ip), vehicle: saline sonified) 122 % of control.
As for `COc1ccc(OC)c(C(=O)CC(O)(C(F)(F)F)C(F)(F)F)c1`, the T/C was 95 % of control (dose: 100.0 mg/kg/injection, schedule: Q01DX009 (ip), vehicle: saline with Tween-80); 120 % of control under setting [6]; 108 % of control (dose: 200.0 mg/kg/injection, schedule: Q01DX009 (ip), vehicle: saline with Tween-80); 110 % of control under setting [7]; 104 % of control (dose: 400.0 mg/kg/injection, schedule: Q01DX009 (ip), vehicle: saline with Tween-80); 100 % of control under setting [8].
Regarding `Cc1ccc2c(c1)nc1c3ccccc3nnn21`, the T/C under setting [5] was 112 % of control, the T/C under setting [6] was 104 % of control and the T/C under setting [7] is 107 % of control.
As to `CCC(CO)NC(=O)Nc1cccc2ccccc12` (centres undefined), the T/C reads like this: (dose: 100.0 mg/kg/injection, schedule: Q01DX001 (ip), vehicle: saline with Tween-80) 109 % of control; (dose: 200.0 mg/kg/injection, schedule: Q01DX001 (ip), vehicle: saline with Tween-80) 100 % of control; (dose: 400.0 mg/kg/injection, schedule: Q01DX001 (ip), vehicle: saline with Tween-80) 109 % of control.
For `O=S(=O)(Nc1ccc(NS(=O)(=O)c2ccccc2)cc1)c1ccccc1`, the T/C reads like this: (dose: 3.12 mg/kg/injection, schedule: Q01DX009 (ip), vehicle: Klucel (hydroxypropylcellulose) (HPC)) 100 % of control; (dose: 6.25 mg/kg/injection, schedule: Q01DX009 (ip), vehicle: Klucel (hydroxypropylcellulose) (HPC)) 100 % of control; (dose: 12.5 mg/kg/injection, schedule: Q01DX009 (ip), vehicle: Klucel (hydroxypropylcellulose) (HPC)) 95 % of control; (dose: 100.0 mg/kg/injection, schedule: Q01DX009 (ip), vehicle: Klucel (hydroxypropylcellulose) (HPC)) 96 % of control.
`Cc1nn(C2CC(O)C(O)C(CO)O2)c(=O)[nH]c1=O` (centres undefined): the T/C was 98 % of control under setting [2]; 99 % of control under setting [3]; 97 % of control under setting [4]; 106 % of control (dose: 400.0 mg/kg/injection, schedule: Q01DX009 (ip), vehicle: saline).
As to `Cc1ccc(S(=O)(=O)OC2CCCCCCCCCCC2=O)cc1` (centres undefined), the T/C runs as follows: (dose: 25.0 mg/kg/injection, schedule: Q04DX003 (ip), vehicle: other) 99 % of control; (dose: 50.0 mg/kg/injection, schedule: Q04DX003 (ip), vehicle: other) 96 % of control; (dose: 100.0 mg/kg/injection, schedule: Q04DX003 (ip), vehicle: other) 95 % of control.

For the origin of these results see PubChem BioAssay AID328 (DTP/NCI, 2004).
